Tested on: KMO
Assay: KMO activity assay: L-Kynurenine hydroxylation to 3-Hydroxy-Kynurenine, quantified by LC/MS
Assay type: biochemical
Details: compound at 10 uM; footnote: some portion of activity of amides may be due to contribution of acid precursor
Method in brief: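 Enzyme: KMO from mitochondria isolated from CHO cells expressing GST-His-KMO, with L-kynurenine as substrate (stock 10 mM in 100 mM potassium phosphate, pH 7.4). Conversion to 3-hydroxy-kynurenine quantified by LC/MS multiple reaction monitoring; compound stocks 10 mM in DMSO.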

| SMILES | % Inhibition at 10 uM [%] |
| --- | --- |
| NC(=O)[C@H]1CCCN1C(=O)c1cc(-c2ccc(Cl)c(Cl)c2)ncn1 [(R)-1-[6-(3,4-Dichloro-phenyl)-pyrimidine-4-carbonyl]-pyrrolidine-2-carboxylic acid amide] | 101 |
| O=C(N[C@H](CO)C(=O)O)c1cc(-c2ccc(Cl)c(Cl)c2)ncn1 [(R)-2-{[6-(3,4-Dichloro-phenyl)-pyrimidine-4-carbonyl]-amino}-3-hydroxy-propionic acid] | 91.12 |
| NC(=O)[C@@H]1CCCN1C(=O)c1cc(-c2ccc(Cl)c(Cl)c2)ncn1 [(S)-1-[6-(3,4-Dichloro-phenyl)-pyrimidine-4-carbonyl]-pyrrolidine-2-carboxylic acid amide] | 99.05 |
| O=C(N[C@@H](CO)C(=O)O)c1cc(-c2ccc(Cl)c(Cl)c2)ncn1 [(S)-2-{[6-(3,4-Dichloro-phenyl)-pyrimidine-4-carbonyl]-amino}-3-hydroxy-propionic acid] | 101.22 |
| C[C@H](NC(=O)c1cc(-c2ccc(Cl)c(Cl)c2)ncn1)C(=O)O [(S)-2-{[6-(3,4-Dichloro-phenyl)-pyrimidine-4-carbonyl]-amino}-propionic acid] | 100.865 |
| O=S(=O)(Nc1cc(-c2ccc(Cl)c(Cl)c2)ccn1)c1ccccc1 [N-[4-(3,4-dichlorophenyl)pyridin-2-yl]benzenesulfonamide] | 17 |
| Cc1ccc(S(=O)(=O)Nc2cc(-c3ccc(Cl)c(Cl)c3)ncn2)c(C)c1 [N-[6-(3,4-dichlorophenyl)pyrimidin-4-yl]-2,4-dimethylbenzene-1-sulfonamide] | 56 |
| O=S(=O)(Nc1cc(-c2ccc(Cl)c(Cl)c2)ncn1)c1ccccc1F [N-[6-(3,4-dichlorophenyl)pyrimidin-4-yl]-2-fluorobenzene-1-sulfonamide] | 103 |
| O=S(=O)(Nc1cc(-c2ccc(Cl)c(Cl)c2)ncn1)c1cccc(OC(F)(F)F)c1 [N-[6-(3,4-dichlorophenyl)pyrimidin-4-yl]-3-(trifluoromethoxy)benzene-1-sulfonamide] | 100 |
| O=S(=O)(Nc1cc(-c2ccc(Cl)c(Cl)c2)ncn1)c1cccc(F)c1 [N-[6-(3,4-dichlorophenyl)pyrimidin-4-yl]-3-fluorobenzene-1-sulfonamide] | 102 |
| CN(c1cc(-c2ccc(Cl)c(Cl)c2)ncn1)S(=O)(=O)c1ccccc1 [N-[6-(3,4-dichlorophenyl)pyrimidin-4-yl]-N-methylbenzenesulfonamide] | 27 |
| O=S(=O)(Nc1cc(-c2ccc(F)c(Cl)c2)ncn1)c1ccccc1 [N-[6-(3-Chloro-4-fluoro-phenyl)-pyrimidin-4-yl]-benzenesulfonamide] | 98 |
| O=C(NS(=O)(=O)c1ccccc1)c1cc(-c2cccc(Cl)c2)ncn1 [N-[6-(3-Chloro-phenyl)-pyrimidine-4-carbonyl]-benzenesulfonamide] | 100.67 |
| CS(=O)(=O)NC(=O)c1cc(-c2cccc(Cl)c2)ncn1 [N-[6-(3-Chloro-phenyl)-pyrimidine-4-carbonyl]-methanesulfonamide] | 101.58 |
| O=S(=O)(Nc1cc(-c2ccc(F)c(Cl)c2)ncn1)c1ccccc1F [N-[6-(3-chloro-4-fluorophenyl)pyrimidin-4-yl]-2-fluorobenzene-1-sulfonamide] | 100 |
| CC(=O)N[C@@H]1CCN(C(=O)c2cc(-c3ccc(Cl)c(Cl)c3)ncn2)C1 [N-{(R)-1-[6-(3,4-Dichloro-phenyl)-pyrimidine-4-carbonyl]-pyrrolidin-3-yl}-acetamide] | 98.55 |
| CN(C)CCC(=O)N[C@H]1CCN(C(=O)c2cc(-c3ccc(Cl)c(Cl)c3)ncn2)C1 [N-{(S)-1-[6-(3,4-Dichloro-phenyl)-pyrimidine-4-carbonyl]-pyrrolidin-3-yl}-3-dimethylamino-propionamide] | 91.785 |
| CC(=O)N[C@H]1CCN(C(=O)c2cc(-c3ccc(Cl)c(Cl)c3)ncn2)C1 [N-{(S)-1-[6-(3,4-Dichloro-phenyl)-pyrimidine-4-carbonyl]-pyrrolidin-3-yl}-acetamide] | 100.27 |
| CN1CCN(C(=O)c2cc(-c3ccc(Cl)c(Cl)c3)ncn2)CC1 [[6-(3,4-Dichloro-phenyl)-pyrimidin-4-yl]-(4-methyl-piperazin-1-yl)-methanone] | 94.86 |
| O=C(c1cc(-c2ccc(Cl)c(Cl)c2)ncn1)N1CCc2ccc(F)cc21 [[6-(3,4-Dichloro-phenyl)-pyrimidin-4-yl]-(6-fluoro-2,3-dihydro-indol-1-yl)-methanone] | 100.71 |
| C[C@@H]1CN(C(=O)c2cc(-c3ccc(Cl)c(Cl)c3)ncn2)C[C@H](C)N1.O=C(O)C(F)(F)F [[6-(3,4-Dichloro-phenyl)-pyrimidin-4-yl]-((3S,5R)-3,5-dimethyl-piperazin-1-yl)-methanone, trifluoro-acetic acid salt] | 95.92 |
| O=C(c1cc(-c2ccc(Cl)c(Cl)c2)ncn1)N1CCC[C@@H](O)C1 [[6-(3,4-Dichloro-phenyl)-pyrimidin-4-yl]-((R)-3-hydroxy-piperidin-1-yl)-methanone] | 99.86 |
| O=C(c1cc(-c2ccc(Cl)c(Cl)c2)ncn1)N1CC[C@@H](O)C1 [[6-(3,4-Dichloro-phenyl)-pyrimidin-4-yl]-((R)-3-hydroxy-pyrrolidin-1-yl)-methanone] | 101.49 |
| O=C(c1cc(-c2ccc(Cl)c(Cl)c2)ncn1)N1CCC[C@H](O)C1 [[6-(3,4-Dichloro-phenyl)-pyrimidin-4-yl]-((S)-3-hydroxy-piperidin-1-yl)-methanone] | 99.98 |
| O=C(c1cc(-c2ccc(Cl)c(Cl)c2)ncn1)N1CCC(C(=O)N2CCOCC2)C1 (centres unmarked) [[6-(3,4-Dichloro-phenyl)-pyrimidin-4-yl]-[3-(morpholine-4-carbonyl)-pyrrolidin-1-yl]-methanone] | 90.83 |
| O=C(c1cc(-c2ccc(Cl)c(Cl)c2)ncn1)N1CCN(C(=O)N2CCOCC2)CC1 [[6-(3,4-Dichloro-phenyl)-pyrimidin-4-yl]-[4-(morpholine-4-carbonyl)-piperazin-1-yl]-methanone] | 40.38 |
| O=C(c1cc(-c2ccc(Cl)c(Cl)c2)ncn1)N1CCNCC1 [[6-(3,4-dichloro-phenyl)-pyrimidin-4-yl]-piperazin-1-yl-methanone] | 71.34 |
| CCCCOC(=O)c1cc(-c2ccc(Cl)c(Cl)c2)ncn1 [butyl 6-(3,4-dichlorophenyl)pyrimidine-4-carboxylate] | 100 |
| CC(C)OC(=O)c1cc(-c2ccc(Cl)c(Cl)c2)ncn1 [propan-2-yl 6-(3,4-dichlorophenyl)pyrimidine-4-carboxylate] | 100 |
